Reference: article PMC7614683, “A small molecule PI3Kα activator for cardioprotection and neuroregeneration” (Nature, 2023)

Molecular target: T1, full length p110α/p85α (Homo sapiens, UniProt P42336)
T1 construct: Full-length human p110α was expressed either in a complex with full-length human p85α (for HTS, biochemistry and HDX-MS); 6xHis tag followed by TEV protease site (N); host or cells: Spodoptera frugiperda Sf9, baculovirus
Assay: HDX-MS
Format: binding
Description: Sample preparation: HDX-MS experiments were carried out as described previously. […] In total, three biological replicates, i.e. three separate protein preparations, each with exchange experiments carried out in triplicate were conducted. Data presented in the manuscript is a single biological replicate. Data acquisition and analysis were as follows: Each sample was thawed and injected onto an M-Class Acquity UPLC with HDX Technology (Waters) kept at 0.1°C. Proteins were digested in-line using an Enzymate Pepsin Column (Waters, #186007233) at 15°C for 2 min at 200 μl/min. Peptic peptides were then eluted onto an Acquity UPLC BEH C18 Column (Waters, #186002346) equilibrated in Pepsin-A buffer (0.1% formic acid) and separated using a 5-35% gradient of Pepsin-B buffer (0.1% formic acid, 99% acetonitrile) over 7 min at a flowrate of 40 μl/min. Data were collected on a Waters Cyclic IMS, with an electrospray ionisation source, from 50-2000 m/z. Data were collected in the HDMS^E mode. A single pass of the cyclic IMS was conducted. A “blank” sample of protein dilution buffer with quench was run between samples, and carry-over of peptides was routinely monitored. Five replicates were used to identify non-deuterated peptides. Criteria used to include peptides in the HDX-MS dataset were: minimum intensity 5000, minimum sequence length 5, maximum sequence length 25, a minimum of 3 fragment ions, a minimum of 0.1 products per amino acid, a minimum score of 6.62, a maximum MH+ Error of 10 ppm, identification in at least two datasets with a retention time RSD of less than 10%. Data was analysed using Protein Lynx Global Server (Waters) and DynamX (Waters). All peptides were manually inspected for EX1 kinetics and sufficient quality of the peptide envelope. Data quality, experiment design, and reporting of data meets the criteria as determined by the HDX-MS community. Uptake files were created using Baryonyx. Data are available via ProteomeXchange with identifier PXD037721.

[1] = PK3CA_HUMAN peptide 334-341, time point 1 of 5
[2] = PK3CA_HUMAN peptide 334-341, time point 2 of 5
[3] = PK3CA_HUMAN peptide 334-341, time point 3 of 5
[4] = PK3CA_HUMAN peptide 334-341, time point 4 of 5
[5] = PK3CA_HUMAN peptide 334-341, time point 5 of 5
[6] = PK3CA_HUMAN peptide 342-356, time point 1 of 5
[7] = PK3CA_HUMAN peptide 342-356, time point 2 of 5
[8] = PK3CA_HUMAN peptide 342-356, time point 3 of 5
[9] = PK3CA_HUMAN peptide 342-356, time point 4 of 5
[10] = PK3CA_HUMAN peptide 342-356, time point 5 of 5
[11] = PK3CA_HUMAN peptide 356-368, time point 1 of 5
[12] = PK3CA_HUMAN peptide 356-368, time point 2 of 5
[13] = PK3CA_HUMAN peptide 356-368, time point 3 of 5
[14] = PK3CA_HUMAN peptide 356-368, time point 4 of 5
[15] = PK3CA_HUMAN peptide 356-368, time point 5 of 5
[16] = PK3CA_HUMAN peptide 369-380, time point 1 of 5
[17] = PK3CA_HUMAN peptide 369-380, time point 2 of 5
[18] = PK3CA_HUMAN peptide 369-380, time point 3 of 5
[19] = PK3CA_HUMAN peptide 369-380, time point 4 of 5
[20] = PK3CA_HUMAN peptide 369-380, time point 5 of 5
[21] = PK3CA_HUMAN peptide 371-380, time point 1 of 5
[22] = PK3CA_HUMAN peptide 371-380, time point 2 of 5
[23] = PK3CA_HUMAN peptide 371-380, time point 3 of 5
[24] = PK3CA_HUMAN peptide 371-380, time point 4 of 5
[25] = PK3CA_HUMAN peptide 371-380, time point 5 of 5

T1 sequence (P42336 whole entry): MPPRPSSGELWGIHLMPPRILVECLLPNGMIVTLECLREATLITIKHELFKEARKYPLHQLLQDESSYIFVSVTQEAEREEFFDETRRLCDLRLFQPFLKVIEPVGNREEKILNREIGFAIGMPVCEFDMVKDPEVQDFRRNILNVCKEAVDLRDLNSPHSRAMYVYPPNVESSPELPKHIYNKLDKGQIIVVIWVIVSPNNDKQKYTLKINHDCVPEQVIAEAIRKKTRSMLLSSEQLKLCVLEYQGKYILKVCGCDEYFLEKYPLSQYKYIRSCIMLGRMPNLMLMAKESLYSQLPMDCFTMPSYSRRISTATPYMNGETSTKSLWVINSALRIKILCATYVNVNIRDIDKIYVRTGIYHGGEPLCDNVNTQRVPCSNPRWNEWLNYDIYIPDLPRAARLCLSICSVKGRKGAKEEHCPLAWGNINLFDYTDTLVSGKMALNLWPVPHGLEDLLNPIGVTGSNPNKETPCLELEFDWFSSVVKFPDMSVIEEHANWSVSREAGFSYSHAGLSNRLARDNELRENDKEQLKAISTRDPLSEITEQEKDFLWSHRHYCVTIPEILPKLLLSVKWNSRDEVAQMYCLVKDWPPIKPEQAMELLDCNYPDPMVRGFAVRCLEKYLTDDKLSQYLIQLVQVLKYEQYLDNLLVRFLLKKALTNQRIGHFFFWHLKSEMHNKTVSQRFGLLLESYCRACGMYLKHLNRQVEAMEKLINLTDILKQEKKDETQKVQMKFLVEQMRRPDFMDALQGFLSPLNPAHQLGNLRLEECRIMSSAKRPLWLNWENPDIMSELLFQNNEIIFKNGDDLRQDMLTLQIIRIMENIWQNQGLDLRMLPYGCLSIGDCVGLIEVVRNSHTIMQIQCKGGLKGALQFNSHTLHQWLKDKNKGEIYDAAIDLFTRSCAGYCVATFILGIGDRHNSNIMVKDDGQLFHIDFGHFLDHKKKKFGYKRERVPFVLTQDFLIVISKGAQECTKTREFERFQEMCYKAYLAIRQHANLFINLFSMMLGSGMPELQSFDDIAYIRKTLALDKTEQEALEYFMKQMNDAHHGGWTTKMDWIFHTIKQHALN
T1 sequence (P27986 whole entry partner): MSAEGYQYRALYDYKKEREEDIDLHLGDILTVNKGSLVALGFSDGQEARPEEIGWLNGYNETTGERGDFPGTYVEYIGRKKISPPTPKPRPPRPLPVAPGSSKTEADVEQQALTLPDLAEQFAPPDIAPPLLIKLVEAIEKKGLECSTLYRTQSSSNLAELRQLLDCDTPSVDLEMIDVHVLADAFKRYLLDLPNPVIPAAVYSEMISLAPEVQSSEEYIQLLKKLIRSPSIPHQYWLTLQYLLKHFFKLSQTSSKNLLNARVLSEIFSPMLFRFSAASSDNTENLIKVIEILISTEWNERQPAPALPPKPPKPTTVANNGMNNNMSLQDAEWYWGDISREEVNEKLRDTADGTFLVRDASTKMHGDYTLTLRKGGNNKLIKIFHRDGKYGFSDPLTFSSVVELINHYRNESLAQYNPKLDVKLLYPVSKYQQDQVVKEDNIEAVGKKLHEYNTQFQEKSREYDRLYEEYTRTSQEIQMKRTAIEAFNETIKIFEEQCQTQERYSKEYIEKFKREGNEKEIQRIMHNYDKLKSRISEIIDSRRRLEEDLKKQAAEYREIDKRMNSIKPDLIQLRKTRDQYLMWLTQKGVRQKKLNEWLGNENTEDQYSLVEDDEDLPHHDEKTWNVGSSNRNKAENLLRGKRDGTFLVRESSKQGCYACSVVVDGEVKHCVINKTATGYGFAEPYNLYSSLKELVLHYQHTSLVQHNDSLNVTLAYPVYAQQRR

CCN1CCN(c2ccc(Nc3cc(Nc4cccc5c4N(C(C)=O)CC5)ccn3)cc2)CC1 [Compound 1938]
HDX difference (Da) (PK3CA_HUMAN peptide 326-333, time point 5 of 5): -0.29 Da
HDX difference (%D) [1]: -1.6%
HDX difference (Da) [1]: -0.11 Da
HDX difference (%D) [2]: -0.186%
HDX difference (Da) [2]: -0.013 Da
HDX difference (%D) [3]: -0.0541%
HDX difference (Da) [3]: -0.00379 Da
HDX difference (%D) [4]: 0.367%
HDX difference (Da) [4]: 0.0257 Da
HDX difference (%D) [5]: 0.162%
HDX difference (Da) [5]: 0.0113 Da
HDX difference (%D) [6]: -1.7%
HDX difference (Da) [6]: -0.24 Da
HDX difference (%D) [7]: 0.845%
HDX difference (Da) [7]: 0.12 Da
HDX difference (%D) [8]: 0.00161%
HDX difference (Da) [8]: 0.000225 Da
HDX difference (%D) [9]: 1.1%
HDX difference (Da) [9]: 0.16 Da
HDX difference (%D) [10]: 0.6%
HDX difference (Da) [10]: 0.09 Da
HDX difference (%D) [11]: -0.8%
HDX difference (Da) [11]: -0.10 Da
HDX difference (%D) [12]: -1.0%
HDX difference (Da) [12]: -0.12 Da
HDX difference (%D) [13]: 0.8%
HDX difference (Da) [13]: 0.09 Da
HDX difference (%D) [14]: 0.0672%
HDX difference (Da) [14]: 0.00807 Da
HDX difference (%D) [15]: 0.6%
HDX difference (Da) [15]: 0.0745 Da
HDX difference (%D) [16]: -2.7%
HDX difference (Da) [16]: -0.30 Da
HDX difference (%D) [17]: 1.2%
HDX difference (Da) [17]: 0.14 Da
HDX difference (%D) [18]: -1.1%
HDX difference (Da) [18]: -0.12 Da
HDX difference (%D) [19]: -0.8%
HDX difference (Da) [19]: -0.08 Da
HDX difference (%D) [20]: 0.6%
HDX difference (Da) [20]: 0.07 Da
HDX difference (%D) [21]: -3.7%
HDX difference (Da) [21]: -0.33 Da
HDX difference (%D) [22]: -0.454%
HDX difference (Da) [22]: -0.04 Da
HDX difference (%D) [23]: -1.7%
HDX difference (Da) [23]: -0.15 Da
HDX difference (%D) [24]: -2.6%
HDX difference (Da) [24]: -0.23 Da
HDX difference (%D) [25]: 0.329%
HDX difference (Da) [25]: 0.03 Da
HDX difference, percentage (PK3CA_HUMAN peptide 457-466, time column 1 of 5, deuterium exchange time 0.005): -0.467%
HDX difference, percentage (PK3CA_HUMAN peptide 457-466, time column 2 of 5, deuterium exchange time 0.05): -0.449%
HDX difference, percentage (PK3CA_HUMAN peptide 457-466, time column 3 of 5, deuterium exchange time 0.5): 0.346%
HDX difference, percentage (PK3CA_HUMAN peptide 457-466, time column 4 of 5, deuterium exchange time 5): -0.9%
HDX difference, percentage (PK3CA_HUMAN peptide 457-466, time column 5 of 5): -1.0%
HDX difference, percentage (PK3CA_HUMAN peptide 467-476, time column 1 of 5, deuterium exchange time 0.005): -1.4%
HDX difference, percentage (PK3CA_HUMAN peptide 467-476, time column 2 of 5, deuterium exchange time 0.05): -0.5%
HDX difference, percentage (PK3CA_HUMAN peptide 467-476, time column 3 of 5, deuterium exchange time 0.5): -0.7%
HDX difference, percentage (PK3CA_HUMAN peptide 467-476, time column 4 of 5, deuterium exchange time 5): -0.9%
HDX difference, percentage (PK3CA_HUMAN peptide 467-476, time column 5 of 5): -0.552%
HDX difference, percentage (PK3CA_HUMAN peptide 477-486, time column 1 of 5, deuterium exchange time 0.005): -1.6%
HDX difference, percentage (PK3CA_HUMAN peptide 477-486, time column 2 of 5, deuterium exchange time 0.05): 0.186%
HDX difference, percentage (PK3CA_HUMAN peptide 477-486, time column 3 of 5, deuterium exchange time 0.5): 0.327%
HDX difference, percentage (PK3CA_HUMAN peptide 477-486, time column 4 of 5, deuterium exchange time 5): -0.0919%
HDX difference, percentage (PK3CA_HUMAN peptide 477-486, time column 5 of 5): 0.0363%
HDX difference, percentage (PK3CA_HUMAN peptide 487-495, time column 1 of 5, deuterium exchange time 0.005): -0.747%
HDX difference, percentage (PK3CA_HUMAN peptide 487-495, time column 2 of 5, deuterium exchange time 0.05): 0.4%
HDX difference, percentage (PK3CA_HUMAN peptide 487-495, time column 3 of 5, deuterium exchange time 0.5): 0.0115%
HDX difference, percentage (PK3CA_HUMAN peptide 487-495, time column 4 of 5, deuterium exchange time 5): -0.8%
HDX difference, percentage (PK3CA_HUMAN peptide 487-495, time column 5 of 5): -0.2%
HDX difference, percentage (PK3CA_HUMAN peptide 487-498, time column 1 of 5, deuterium exchange time 0.005): -0.239%
HDX difference, percentage (PK3CA_HUMAN peptide 487-498, time column 2 of 5, deuterium exchange time 0.05): -0.449%
HDX difference, percentage (PK3CA_HUMAN peptide 487-498, time column 3 of 5, deuterium exchange time 0.5): 0.176%
HDX difference, percentage (PK3CA_HUMAN peptide 487-498, time column 4 of 5, deuterium exchange time 5): -1.0%
